“Also recorded” adds a separate entry of the source.
Key:
3T3-L1 preadipocytes = test: MTT lipid-lowering (adipocyte-degrading) activity analysis on 3T3-L1 preadipocyte line; assay type: cell-based; settings: for adipocyte-degrading (adipocyte lysis) activity compared with positive controls H-LEP and Ros: preadipocytes stage, early differentiation stage D0-D2 and mature adipocyte stage D9, PEP-E 10^−6M, Ros 0.5 μM
Procedure: Lipid degradation activity of the synthesized leptin active peptide having CD-loop and helix E region mutations is analyzed on a cellular level by taking a 3T3-L1 preadipocyte line as a model. Specific operations are as follows:
a. leptin active peptide having CD-loop and helix E region mutations (PEP-E): diluted to 10^−3M with purified water and preserved at −20 degree C. for later use. After an experiment is started, working concentrations have 3 concentration gradients, that is, 10^−6M, 10−9M and 10^−11M;
b. positive control 1: H-LEP recombinant human-derived leptin protein (10221-HNAE, Beijing Sino Biological Inc.), diluted to 10^−6M with purified water and preserved at −20 degree C. for later use. After an experiment is started, the working concentration is 10^−9M.
c. positive control 2: Ros rosiglitazone, R2408, Sigma), diluted to a stock solution with a concentration of 2518 μM with DMSO and preserved at −20 degree C. for later use. After an experiment is started, the stock solution is diluted to a working solution of 0.5 μM with cell culture fluid.
d. negative control (Control): equivalent quantity of PBS
(1) inoculating 3T3-L1 preadipocytes in coming cell bind 96-well plates (totally inoculated with 3 plates, respectively plate a, plate b and plate c), wherein the inoculation density is 4500 cells/well; and marking, and standing and culturing at 37 degree C. in a 5% CO2 incubator. Each sample of each plate is operated repeatedly for 3 times, and the whole experiment is repeated for 3 times;
(2) continuously culturing for 48 hours after the cells are merged to 100% (enabling the cells to exit from a growth cycle, and starting induced differentiation.); and
i, taking out the plate a, respectively adding different amounts of leptin active peptide having CD-loop and helix E region mutations (PEP-E) to enable the working concentrations to be respectively 3 concentration gradients, that is, 10^−6M, 10^−9M and […], setting 2 positive controls, a negative control (PBS) and a blank control (3 repeated holes are set for each sample), and continuously standing and culturing at 37 degree C. in the 5% CO2 incubator.
ii, when culturing to 45 hours (that is, 3 hours before the end of drug treatment), taking out the plate a, and measuring MTT (preadipocytes). Specific operations: adding 20 μL of 5 mg/mL of MTT solution into each well, continuously standing and culturing at 37 degree C. in the 5% CO2 incubator for 3 hours, sucking and discarding the culture solution in the wells, adding 150 μL of DMSO into each well, horizontally shaking for 10 min, detecting a light absorption value at 492 nm by a microplate reader, and drawing a growth curve. […]
ii, when culturing to 45 hours (that is, 3 hours before the end of drug treatment), taking out the plate b, and measuring MTT (at the early differentiation stage, D0-D2). Specific operations: adding 20 μL of 5 mg/mL of MTT solution into each well; continuously standing and culturing at 37 degree C. in the 5% CO2 incubator for 3 hours, sucking and discarding the culture solution in the wells; adding 150 μL of DMSO into each well, horizontally shaking for 10 min, detecting a light absorption value at 492 nm by a microplate reader, and drawing a growth curve; […]

[1] = cited from earlier work

H-LEP: recombinant human-derived leptin protein (10221-HNAE, Beijing Sino Biological Inc.) [reference compound]
adipocyte lysis activity of positive control vs. negative control (3T3-L1 preadipocytes; H-LEP 10^−9M, Ros 0.5 μM vs. PBS, P<0.05): obviously better than that of the negative control

SCHLHWAPGLETLDSGVQEASGY (An amino acid sequence of the leptin active peptide having CD-loop and helix E region mutations) [PEP-E]
dependence of lipid-lowering activity on concentration and cell differentiation period (3T3-L1 preadipocytes; 10^−6M, 10^−9M, 10^−11M, preadipocytes, D0-D2, D9): obvious concentration dependence and dependence in a cell differentiation period
adipocyte-degrading (adipocyte lysis) activity compared with positive controls H-LEP and Ros (3T3-L1 preadipocytes; 10^−9M, 10^−11M, H-LEP 10^−9M, P<0.05): obviously better than that of the H-LEP; also recorded: obviously better than that of the Ros
adipocyte-degrading (adipocyte lysis) activity compared with positive controls H-LEP and Ros (3T3-L1 preadipocytes; 10^−9M, 10^−11M, H-LEP 10^−9M, P<0.05, listed as leptin active peptide having CD-loop and helix E region mutations): obviously better than that of positive control-human-derived leptin protein (H-LEP) and a commercially available drug rosiglitazone (Ros,)
lipid-lowering activity: stage and concentration of optimal effect (3T3-L1 preadipocytes; three stages, three concentrations compared): optimal effect at the D0-D2 stage when the concentration is 10^−6M

wild type human-derived leptin protein: leptin protein given to obese patients in the first human experiment
weight loss effect in obese patients ([1]; 73 tested obese patients): most of the patients do not have an obvious weight loss effect
weight loss ([1]; only 2 of 73 patients, within 24 weeks): 35 pounds
